# Where two headings read alike, the source gives them in different places.
# Tests used:
# [1] = biological target: GDP-bound KRAS wild-type protein (Homo sapiens, UniProt P01116); assay: Binding to KRAS by surface plasmon resonance (SPR), Single Cycle Kinetics; conditions: SPR, Single Cycle Kinetics
# [2] = biological target: GDP-bound NRAS wild-type protein (Homo sapiens, UniProt P01111); assay: Binding to NRAS by surface plasmon resonance (SPR), Single Cycle Kinetics; conditions: SPR; for NRAS/KRAS (ratio of KD value for NRAS to KD value for KRAS): GDP-bound NRAS wild-type protein vs GDP-bound KRAS wild-type protein
# [3] = biological target: GDP-bound HRAS wild-type protein (Homo sapiens, UniProt P01112); assay: Binding to HRAS by surface plasmon resonance (SPR), Single Cycle Kinetics; conditions: SPR; for HRAS/KRAS (ratio of KD value for HRAS to KD value for KRAS): GDP-bound HRAS wild-type protein vs GDP-bound KRAS wild-type protein
# [4] = tested on: human lung cancer strain NCI-H441;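 also: cell proliferation inhibition after four days measured by CellTiter-Glo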
# [5] = GDP-bound KRAS wild-type protein, read-out: KRAS KD
# Sequence of GDP-bound NRAS wild-type protein (P01111 whole entry): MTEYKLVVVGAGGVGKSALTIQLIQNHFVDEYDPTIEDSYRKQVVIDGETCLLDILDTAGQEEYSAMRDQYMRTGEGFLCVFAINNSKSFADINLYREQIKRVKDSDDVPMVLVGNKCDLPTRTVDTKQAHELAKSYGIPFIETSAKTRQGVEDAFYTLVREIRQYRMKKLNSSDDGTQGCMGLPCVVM
# Sequence of GDP-bound HRAS wild-type protein (P01112 whole entry): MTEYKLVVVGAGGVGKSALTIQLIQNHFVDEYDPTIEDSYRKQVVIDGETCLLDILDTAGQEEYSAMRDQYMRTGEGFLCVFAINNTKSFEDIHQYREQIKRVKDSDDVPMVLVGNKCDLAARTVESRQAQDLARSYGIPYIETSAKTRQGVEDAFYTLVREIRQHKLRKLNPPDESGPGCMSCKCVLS
# Sequence of GDP-bound KRAS wild-type protein (P01116 whole entry): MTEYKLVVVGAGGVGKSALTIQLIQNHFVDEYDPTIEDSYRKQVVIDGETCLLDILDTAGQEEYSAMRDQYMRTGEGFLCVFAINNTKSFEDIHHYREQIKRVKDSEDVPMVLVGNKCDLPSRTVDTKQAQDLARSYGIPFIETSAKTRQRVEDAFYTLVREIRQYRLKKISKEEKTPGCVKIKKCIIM
SMILES,"Kd ([1]; 1:1 binding model, GDP-bound KRAS wild-type protein, read-out: KRAS KD)",NRAS/KRAS (ratio of KD value for NRAS to KD value for KRAS) ([2]; KD ratio class),HRAS/KRAS (ratio of KD value for HRAS to KD value for KRAS) ([3]; KD ratio class),IC50 [4],"Kd [1, 5]",NRAS/KRAS (ratio of KD value for NRAS to KD value for KRAS) [2],HRAS/KRAS (ratio of KD value for HRAS to KD value for KRAS) [3],"Kd ([1]; 1:1 binding model, read-out: KD value with respect to GDP-bound KRAS wild-type protein)",ratio of the KD value with respect to GDP-bound NRAS wild-type protein to the KD value with respect to KRAS ([2]; KD(NRAS)/KD(KRAS)),ratio of the KD value with respect to GDP-bound HRAS wild-type protein to the KD value with respect to KRAS ([3]; KD(HRAS)/KD(KRAS)),"IC50 ([4]; read-out: NCI-H441 cell proliferation inhibitory activity, 50% proliferation inhibitory concentration (IC50 value), NCI-H441, four days, CellTiter-Glo)"
"CCO[C@@H]1C[C@H]2C(=O)NC3(CCC3)C(=O)N(C)[C@@H](C3CCCC3)C(=O)N(C)[C@H](C(=O)N(C)C)CC(=O)N(C)[C@@H](CC3CC3)C(=O)N[C@@H]([C@@H](C)CC)C(=O)N(C)CC(=O)N(C)[C@H]3C/C=C\CCN(C3=O)[C@@H](CC3CCC(F)(F)CC3)C(=O)N(C)CC(=O)N[C@@H](CCc3cc(F)c(C(F)(F)F)c(F)c3)C(=O)N2C1 [PP1447, (2S,8S,12R,14S,20S,23S,27S,30S,36S,38Z)-20-cyclopentyl-27-(cyclopropylmethyl)-2-[(4,4-difluorocyclohexyl)methyl]-8-[2-[3,5-difluoro-4-(trifluoromethyl)phenyl]ethyl]-12-ethoxy-N,N,4,19,22,26,32,35-octamethyl-30-[(1S)-1-methylpropyl]-3,6,9,15,18,21,25,28,31,34,42-undecaoxo-spiro[1,4,7,10,16,19,22,26,29,32,35-undecazatricyclo[34.5.1.0^10,14]dotetracont-38-ene-17,1′-cyclobutane]-23-carboxamide]",0.12 nM,A (a compound having 10 or more and less than 20 is denoted as A),A (a compound having 10 or more and less than 20 is denoted as A),28.9 nM,,,,,,,
CCO[C@@H]1C[C@H]2C(=O)NC3(CC(C)(C)C3)C(=O)N(C)[C@@H](C(CC)CC)C(=O)N(C)[C@H](C(=O)N(C)C)CC(=O)N(C)[C@@H](COC)C(=O)N[C@@H]([C@@H](C)CC)C(=O)N(C)CC(=O)N(C)[C@H]3C/C=C\CCN(C3=O)[C@@H](CC3CCC(F)(F)CC3)C(=O)N(C)CC(=O)N[C@@H](CCc3ccc(C(F)(F)F)c(OC)c3)C(=O)N2C1 [PP2438],,,,41.4 nM,0.64 nM,A (a compound having 10 or more and less than 20 is denoted as A),A (a compound having 10 or more and less than 20 is denoted as A),,,,
CCC(CC)[C@H]1C(=O)N(C)[C@H](C(=O)N(C)C)CC(=O)N(C)[C@@H](COC)C(=O)N[C@@H]([C@@H](C)CC)C(=O)N(C)CC(=O)N(C)[C@H]2C/C=C\CCN(C2=O)[C@@H](CC2CCCCC2)C(=O)N(C)CC(=O)N[C@@H](CCc2ccc(C(F)(F)F)c(OC)c2)C(=O)N2C[C@@H](C)C[C@H]2C(=O)NC2(CC(C)(C)C2)C(=O)N1C [PP2466],,,,170 nM,3.9 nM,A (a compound having 10 or more and less than 20 is denoted as A),A (a compound having 10 or more and less than 20 is denoted as A),,,,
CCO[C@H](C)[C@@H]1NC(=O)[C@H](CC(C)C)N(C)C(=O)C[C@@H](C(=O)N(C)CC)N(C)C(=O)[C@H](C2CCCC2)N(C)C(=O)C2(CC(C)(C)C2)NC(=O)[C@@H]2C[C@H](C)CN2C(=O)[C@H](CCc2ccc(C(F)(F)F)c(OC)c2)NC(=O)CN(C)C(=O)[C@H](Cc2ccc(C)cc2)N2CC/C=C\C[C@@H](C2=O)N(C)C(=O)[C@@H]2CCCN2C1=O [PP2419],,,,125 nM,2 nM,A (a compound having 10 or more and less than 20 is denoted as A),A (a compound having 10 or more and less than 20 is denoted as A),,,,
"CC[C@H](C)[C@@H]1NC(=O)[C@H](CC)N(C)C(=O)C[C@@H](C(=O)N(C)C)N(C)C(=O)[C@H](C2CCCC2)N(C)C(=O)C2(CCC2)NC(=O)[C@@H]2CCCCN2C(=O)[C@H](CCc2cc(F)c(C(F)(F)F)c(F)c2)NC(=O)CN(C)C(=O)[C@H](Cc2ccc(C(F)(F)F)cc2)N2CC/C=C\C[C@@H](C2=O)N(C)C(=O)CN(C)C1=O [PP1136, (2S,8S,15S,21S,24S,28S,31S,37S,39Z)-21-cyclopentyl-8-[2-[3,5-difluoro-4-(trifluoromethyl)phenyl]ethyl]-28-ethyl-N,N,4,20,23,27,33,36-octamethyl-31-[(1S)-1-methylpropyl]-3,6,9,16,19,22,26,29,32,35,43-undecaoxo-2-[[4-(trifluoromethyl)phenyl]methyl]spiro[1,4,7,10,17,20,23,27,30,33,36-undecazatricyclo[35.5.1.0^10,1^5]tritetracont-39-ene-18,1′-cyclobutane]-24-carboxamide]",,,,193 nM,0.14 nM,A (a compound having 10 or more and less than 20 is denoted as A),A (a compound having 10 or more and less than 20 is denoted as A),,,,
"CCC[C@H]1C(=O)N[C@@H]([C@@H](C)CC)C(=O)N(C)CC(=O)N(C)[C@H]2C/C=C\CCN(C2=O)[C@@H](Cc2ccc(C)cc2)C(=O)N(C)CC(=O)N[C@@H](CCc2cc(F)c(C(F)(F)F)c(F)c2)C(=O)N2C[C@H](OCC)C[C@H]2C(=O)N(C)C2(CCC2)C(=O)N(C)[C@@H](C2CCCC2)C(=O)N(C)[C@H](C(=O)N2CCCCC2)CC(=O)N1C [PP3119, (2S,8S,12R,14S,20S,23S,27S,30S,36S,38Z)-20-cyclopentyl-8-[2-[3,5-difluoro-4-(trifluoromethyl)phenyl]ethyl]-12-ethoxy-4,16,19,22,26,32,35-heptamethyl-30-[(1S)-1-methylpropyl]-23-(piperidine-1-carbonyl)-27-propyl-2-(p-tolylmethyl)spiro[1,4,7,10,16,19,22,26,29,32,35-undecazatricyclo[34.5.1.0^10,14]dotetracont-38-ene-17,1′-cyclobutane]-3,6,9,15,18,21,25,28,31,34,42-undecone]",,,,,0.09 nM,A (a compound having 10 or more and less than 20 is denoted as A),A (a compound having 10 or more and less than 20 is denoted as A),0.09 nM,A (a compound having 10 or more and less than 20 is denoted as A),A (a compound having 10 or more and less than 20 is denoted as A),3.5 nM
CCCOC[C@H]1C(=O)N[C@@H]([C@@H](C)CC)C(=O)N(C)CC(=O)N(C)[C@H]2C/C=C\CCN(C2=O)[C@@H](Cc2ccc(C)cc2)C(=O)N(C)CC(=O)N[C@@H](CCc2ccc(C(F)(F)F)c(OC)c2)C(=O)N2C[C@@H](C)C[C@H]2C(=O)N(C)C2(CCC2)C(=O)N(C)[C@@H](C2CCCC2)C(=O)N(C)[C@H](C(=O)N(C)C)CC(=O)N1C [PP2365],,,,3.3 nM,0.02 nM,A (a compound having 10 or more and less than 20 is denoted as A),B (a compound having 3 or more and less than 10 is denoted as B),,,,

# — patent US20240158446A1, “CYCLIC COMPOUND HAVING SELECTIVE INHIBITORY ACTION ON KRAS OVER HRAS AND NRAS” (CHUGAI SEIYAKU KABUSHIKI KAISHA, priority 2021, published 2024)
